The values below are quoted from earlier work in US20130344150A1, “DIRECT COMPRESSION TABLETS OF OTILONIUM” (Abdi Ibrahim IIac Sanayi Ve Ticaret Anonim Sirketi, priority 2009, published 2013).

Series [1] has as its system gastrointestinal-motility. Conditions: baseline and chemically or physically stimulated.
For series [2] the following is noted: clinical studies.

Consider `CCCCCCCCOc1ccccc1C(=O)Nc1ccc(C(=O)OCC[N+](C)(CC)CC)cc1` [otilonium bromide], for which the effect on gastrointestinal-motility result in series [1] was “inhibits both baseline and chemically or physically stimulated gastrointestinal-motility”. Further, the tolerability result in series [2] is “good tolerability profile”.
